Converted amounts (≈) assume the structure as drawn. Read-outs that look alike come from different tables or passages of the source.
Tests used:
P. magnus = assay: MIC agar dilution, anaerobic bacteria; assay type: cell-based; conditions: Finegoldia magna, 20 h
B. vulgatus = assay: MIC agar dilution, anaerobic bacteria; assay type: cell-based
[1] = test system: Peptostreptococcus asaccharolyticus; assay: MIC agar dilution, anaerobic bacteria; assay type: cell-based; conditions: Peptoniphilus asaccharolyticus, 20 h
Fusobacterium species = assay: MIC agar dilution, anaerobic bacteria; assay type: cell-based; conditions: Fusobacterium, 20 h
Fusobacterium nucleatum = assay: MIC agar dilution, anaerobic bacteria; assay type: cell-based; conditions: Fusobacterium nucleatum, 20 h
C. difficile = assay: MIC agar dilution, anaerobic bacteria; assay type: cell-based; conditions: Clostridioides difficile, 20 h
B. bivius = assay: MIC agar dilution, anaerobic bacteria; assay type: cell-based; conditions: Prevotella bivia, 20 h
Veillonella parvula = assay: MIC agar dilution, anaerobic bacteria; assay type: cell-based; conditions: Veillonella parvula, 20 h
B. thetaiotaomicron = assay: MIC agar dilution, anaerobic bacteria; assay type: cell-based
B. loescheii = assay: MIC agar dilution, anaerobic bacteria; assay type: cell-based; conditions: Hoylesella loescheii, 20 h
B. disiens = assay: MIC agar dilution, anaerobic bacteria; assay type: cell-based; conditions: Prevotella disiens, 20 h
C. ramosum = assay: MIC agar dilution, anaerobic bacteria; assay type: cell-based; conditions: Thomasclavelia ramosa, 20 h
Propionibacterium acnes = assay: MIC agar dilution, anaerobic bacteria; assay type: cell-based; conditions: Cutibacterium acnes, 20 h
P. species = assay: MIC agar dilution, anaerobic bacteria; assay type: cell-based; conditions: 20 h; Culture # 1776; read-out: MIC
Clostridium perfringens = assay: microbe, parasite or virus in culture; assay type: cell-based; conditions: Clostridium perfringens, 20 h
Bacteriodes fragilis = assay: MIC agar dilution, anaerobic bacteria; assay type: cell-based; conditions: 20 h
P. anaerobius = assay: MIC agar dilution, anaerobic bacteria; assay type: cell-based; conditions: Peptostreptococcus anaerobius, 20 h
P. cepacia = assay: MIC agar dilution, aerobic and facultative bacteria; conditions: Burkholderia cepacia, 20 h
S. epidermidis = assay: as above; conditions: Staphylococcus epidermidis, 20 h
Staphylococcus aureus = assay: as above; conditions: Staphylococcus aureus, 20 h
E. coli = assay: as above; assay type: cell-based; conditions: Escherichia coli, 20 h, read-out: MIC
Enterobacter aerogenes = assay: as above; conditions: Klebsiella aerogenes, 20 h
Streptococcus bovis = assay: as above; conditions: Streptococcus equinus, 20 h
Enterococcus faecium = assay: as above; conditions: Enterococcus faecium, 20 h
[2] = test system: Acinetobacter calcoaceticus; assay: as above; conditions: Acinetobacter calcoaceticus, 20 h
Streptococcus agalactiae = assay: as above; conditions: Streptococcus agalactiae, 20 h
Micrococcus luteus = assay: as above; conditions: Micrococcus luteus, 20 h
Clostridium difficile = assay: In vivo hamster model of pseudomembranous Clostridium difficile induced colitis; conditions: for % Mortality: days 8-14, expiring by day 20
Procedure: (Suppression of normal gastrointestinal bacteria by the ciprofloxacin permitted the drug-resistant C. difficile to predominate.) Five additional hamsters were segregated as a noninfected control group.
The infected animals were divided into three groups comprising (a) 10 untreated animals; (b) 15 vancomycin-treated animals (5 each at 20, 10 and 1 mg/kg/day orally on days 8-14); and (c) 10 animals treated with the compound of Example 2 (5 each at 10 and 1 mg/kg/day on days 8-14). The subject animals were monitored for (a) body weight (infected hamsters lose significant body mass), and (b) mortality (percent expiring by day 20).

S. pyogenes = assay: MIC agar dilution, aerobic and facultative bacteria; conditions: Streptococcus pyogenes, 20 h
Klebsiella pneumoniae = assay: as above; conditions: Klebsiella pneumoniae, 20 h
Providencia stuartii = assay: as above; conditions: Providencia stuartii, 20 h
Pseudomonas aeruginosa = assay: as above
[3] = Bacteroides thetaiotaomicron, 20 h, Culture # 1764, read-out: MIC

CCC[C@@H]1C[C@@H](C(=O)N[C@@H]([C@H]2O[C@H](SC)[C@H](O)[C@@H](O)[C@H]2O)[C@H](C)Cl)N(C)C1 [Clindamycin]
MIC (P. magnus; Culture # 1778, read-out: MIC): 1 µg/mL (≈ 2.35 µM) | MIC (B. vulgatus; Culture # 2481): 0.03 µg/mL (≈ 0.0706 µM) | MIC (B. vulgatus; Phocaeicola vulgatus, 20 h, Culture # 1762, read-out: MIC): 0.03 µg/mL (≈ 0.0706 µM) | MIC ([1]; Culture # 1777, read-out: MIC): 0.03 µg/mL (≈ 0.0706 µM) | MIC (Fusobacterium species; Culture # 1770, read-out: MIC): 0.12 µg/mL (≈ 0.282 µM) | MIC (Fusobacterium nucleatum; Culture # 2478, read-out: MIC): 0.12 µg/mL (≈ 0.282 µM) | MIC (C. difficile; Culture # 1496, read-out: MIC): > 32 µg/mL | MIC (C. difficile; Culture # 1497, read-out: MIC): > 32 µg/mL | MIC (C. difficile; Culture # 1774, read-out: MIC): 0.5 µg/mL (≈ 1.18 µM) | MIC (C. difficile; Culture # 2025, read-out: MIC): 4 µg/mL (≈ 9.41 µM) | MIC (C. difficile; Culture # 2480, read-out: MIC): 4 µg/mL (≈ 9.41 µM) | MIC (C. difficile; Culture # 2528, read-out: MIC): 4 µg/mL (≈ 9.41 µM) | MIC (C. difficile; Culture # 2529, read-out: MIC): 4 µg/mL (≈ 9.41 µM) | MIC (B. bivius; Culture # 2483, read-out: MIC): 0.015 µg/mL (≈ 0.0353 µM) | MIC (Veillonella parvula; Culture # 2479, read-out: MIC): 0.06 µg/mL (≈ 0.141 µM) | MIC (B. thetaiotaomicron; [3]): 4 µg/mL (≈ 9.41 µM) | MIC (B. thetaiotaomicron; Culture # 1765): 4 µg/mL (≈ 9.41 µM) | MIC (B. thetaiotaomicron; Culture # 1766): 4 µg/mL (≈ 9.41 µM) | MIC (B. loescheii; Culture # 1767, read-out: MIC): 0.06 µg/mL (≈ 0.141 µM) | MIC (B. disiens; Culture # 1763, read-out: MIC): 0.015 µg/mL (≈ 0.0353 µM) | MIC (C. ramosum; Culture # 2482, read-out: MIC): 1 µg/mL (≈ 2.35 µM) | MIC (Propionibacterium acnes; Culture # 1775, read-out: MIC): 0.06 µg/mL (≈ 0.141 µM) | MIC (P. species): 0.06 µg/mL (≈ 0.141 µM) | MIC (Clostridium perfringens; Culture # 1771): 0.06 µg/mL (≈ 0.141 µM) | MIC (Clostridium perfringens; Culture # 1772): 0.5 µg/mL (≈ 1.18 µM) | MIC (Clostridium perfringens; Culture # 1773): 0.06 µg/mL (≈ 0.141 µM) | MIC (Bacteriodes fragilis; Culture # 1756, Wilkins-Chalgren agar, 37° C., 48 hours, read-out: MIC): 1 µg/mL (≈ 2.35 µM) | MIC (Bacteriodes fragilis; Culture # 1757, read-out: MIC): 1 µg/mL (≈ 2.35 µM) | MIC (Bacteriodes fragilis; Culture # 1758, read-out: MIC): 0.5 µg/mL (≈ 1.18 µM) | MIC (Bacteriodes fragilis; Culture # 1999, read-out: MIC): 1 µg/mL (≈ 2.35 µM) | MIC (P. anaerobius; Culture # 1780, read-out: MIC): 0.06 µg/mL (≈ 0.141 µM)

CN[C@H](CC(C)C)C(=O)N[C@H]1C(=O)N[C@@H](CC(N)=O)C(=O)N[C@H]2C(=O)N[C@H]3C(=O)N[C@H](C(=O)N[C@H](C(=O)O)c4cc(O)cc(O)c4-c4cc3ccc4O)[C@H](O)c3ccc(c(Cl)c3)Oc3cc2cc(c3O[C@@H]2O[C@H](CO)[C@@H](O)[C@H](O)[C@H]2O[C@H]2C[C@](C)(N)[C@H](O)[C@H](C)O2)Oc2ccc(cc2Cl)[C@H]1O [Vancomycin]
MIC (P. magnus): 0.5 µg/mL (≈ 0.345 µM) | MIC (B. vulgatus; Phocaeicola vulgatus, 20 h, Culture # 2481): 64 µg/mL (≈ 44.2 µM) | MIC (B. vulgatus; Phocaeicola vulgatus, 20 h, Culture # 1762): 32 µg/mL (≈ 22.1 µM) | MIC [1]: 1 µg/mL (≈ 0.69 µM) | MIC (P. cepacia): > 200 µg/mL | MIC (S. epidermidis): 3.1 µg/mL (≈ 2.14 µM) | MIC (Staphylococcus aureus; Culture # 1662, brain heart infusion agar, 37° C.): 3.1 µg/mL (≈ 2.14 µM) | MIC (Staphylococcus aureus; Culture # 1664): 1.56 µg/mL (≈ 1.08 µM) | MIC (Staphylococcus aureus; Culture # 1690): 1.56 µg/mL (≈ 1.08 µM) | MIC (Staphylococcus aureus; Culture # 2124): 3.1 µg/mL (≈ 2.14 µM) | MIC (Staphylococcus aureus; Culture # 2130): 3.1 µg/mL (≈ 2.14 µM) | MIC (Staphylococcus aureus; Culture # 2498): 3.1 µg/mL (≈ 2.14 µM) | MIC (Staphylococcus aureus; cipro res., Culture # 3384): 1.56 µg/mL (≈ 1.08 µM) | MIC (E. coli; DC-2, Culture # 1674): > 200 µg/mL | MIC (E. coli; H560, Culture # 1675): > 200 µg/mL | MIC (E. coli; Juhl, Culture # 1673): > 200 µg/mL | MIC (E. coli; KNK437, Culture # 1676): > 200 µg/mL | MIC (E. coli; SS, Culture # 2489): 50 µg/mL (≈ 34.5 µM) | MIC (Enterobacter aerogenes): > 200 µg/mL | MIC (Streptococcus bovis): 0.78 µg/mL (≈ 0.538 µM) | MIC (Fusobacterium species): > 64 µg/mL | MIC (Enterococcus faecium): 3.1 µg/mL (≈ 2.14 µM) | MIC (Fusobacterium nucleatum): > 64 µg/mL | MIC (C. difficile; Culture # 1496): 0.5 µg/mL (≈ 0.345 µM) | MIC (C. difficile; Culture # 1497): 0.5 µg/mL (≈ 0.345 µM) | MIC (C. difficile; Culture # 1774): 2 µg/mL (≈ 1.38 µM) | MIC (C. difficile; Culture # 2025): 0.5 µg/mL (≈ 0.345 µM) | MIC (C. difficile; Culture # 2480): > 64 µg/mL | MIC (C. difficile; Culture # 2528): 1 µg/mL (≈ 0.69 µM) | MIC (C. difficile; Culture # 2529): 1 µg/mL (≈ 0.69 µM) | MIC [2]: > 200 µg/mL | MIC (Streptococcus agalactiae): 3.1 µg/mL (≈ 2.14 µM) | MIC (Micrococcus luteus; Culture # 2493): 0.78 µg/mL (≈ 0.538 µM) | MIC (Micrococcus luteus; Culture # 2517): 3.1 µg/mL (≈ 2.14 µM) | rapidity of mortality (Clostridium difficile; 1 mg/kg versus 10 or 20 mg/kg): more rapid mortality than hamsters treated at 10 or 20 mg/kg | % Mortality (Clostridium difficile; 1 mg/kg/day): 100% | % Mortality (Clostridium difficile; 10 mg/kg/day): 100% | % Mortality (Clostridium difficile; 20 mg/kg/day, orally): 100% | MIC (B. bivius): 32 µg/mL (≈ 22.1 µM) | MIC (Veillonella parvula): > 64 µg/mL | MIC (B. thetaiotaomicron; [3]): > 64 µg/mL | MIC (B. thetaiotaomicron; Culture # 1765): > 64 µg/mL | MIC (B. thetaiotaomicron; Culture # 1766): > 64 µg/mL | MIC (B. loescheii): 32 µg/mL (≈ 22.1 µM) | MIC (B. disiens): 32 µg/mL (≈ 22.1 µM) | MIC (C. ramosum): 8 µg/mL (≈ 5.52 µM) | MIC (S. pyogenes; Culture # 1671): 3.1 µg/mL (≈ 2.14 µM) | MIC (S. pyogenes; const., Culture # 1672): 0.78 µg/mL (≈ 0.538 µM) | MIC (S. pyogenes; inducible, Culture # 2548): 0.78 µg/mL (≈ 0.538 µM) | MIC (Klebsiella pneumoniae): > 200 µg/mL | MIC (Providencia stuartii): > 200 µg/mL | MIC (Pseudomonas aeruginosa; Culture # 1680): > 200 µg/mL | MIC (Pseudomonas aeruginosa; Culture # 1681): > 200 µg/mL | MIC (Pseudomonas aeruginosa; Culture # 1682): > 200 µg/mL | MIC (Pseudomonas aeruginosa; Pseudomonas aeruginosa, 20 h): > 200 µg/mL | MIC (Pseudomonas aeruginosa; cipro R, Culture # 1919): > 200 µg/mL | MIC (Pseudomonas aeruginosa; cipro R, Culture # 1920): > 200 µg/mL | MIC (Propionibacterium acnes): 0.5 µg/mL (≈ 0.345 µM) | MIC (P. species): 1 µg/mL (≈ 0.69 µM) | MIC (Clostridium perfringens; Culture # 1771): > 64 µg/mL | MIC (Clostridium perfringens; Culture # 1772): 0.5 µg/mL (≈ 0.345 µM) | MIC (Clostridium perfringens; Culture # 1773): 1 µg/mL (≈ 0.69 µM) | MIC (Bacteriodes fragilis; Culture # 1756, Wilkins-Chalgren agar, 37° C., 48 hours): 32 µg/mL (≈ 22.1 µM) | MIC (Bacteriodes fragilis; Culture # 1757): 32 µg/mL (≈ 22.1 µM) | MIC (Bacteriodes fragilis; Culture # 1758): 16 µg/mL (≈ 11 µM) | MIC (P. anaerobius): 0.5 µg/mL (≈ 0.345 µM)

— patent publication US5583115A, “Dialkyltiacumicin compounds” (Abbott Laboratories, priority 1995, dated 1996)
